Drawing on ChEMBL document CHEMBL1153218, “Non-peptide entry inhibitors of HIV-1 that target the gp41 coiled coil pocket” (Bioorg Med Chem Lett, 2010), this text covers Kd and EC50 for 13 compounds.

The nature of assay [1]: Binding affinity to HIV1 envelope gp41 by NMR study. More on the design: species or system Human immunodeficiency virus 1.
Assay [2] can be described thus: Inhibition of HIV1 envelope gp41-mediated fusion of CHO cells expressing HIV1 envelope with calcein-AM labeled SupT1 cells by fluorescence assay. In kind it is cell-based, Human immunodeficiency virus 1.

Usually Kd stands for the constant that tells how readily two partners part at equilibrium. A higher Kd goes with lower affinity. `O=C(O)c1ccccc1C(=O)N(Cc1cccc(Oc2ccccc2)c1)Cc1ccccn1`: the Kd in assay [1] is more than 5000 µM.

The EC50 is the concentration that produces a half-maximal response. Turning to `O=C(O)c1cc(C(=O)O)cc(C(=O)N(Cc2cccc(Oc3ccccc3)c2)[C@H]2CCCc3ccccc32)c1`, in assay [2], the concentration for a half-maximal effect (EC50) is 41 µM.

For `O=C(O)c1ccccc1C(=O)N(Cc1cccc(Oc2ccc(Cl)cc2)c1)[C@H]1CCCc2ccccc21`, in assay [2], the 50% effective concentration (EC50) is 3 µM.

As for `O=C(O)c1ccccc1C(=O)N(Cc1cccc(Oc2ccccc2)c1)CC12CC3CC(CC(C3)C1)C2`, the EC50 in assay [2] is 7 µM.

Turning to `O=C(O)c1cc(C(=O)O)c(C(=O)N(Cc2cccc(OC3CCOCC3)c2)[C@H]2CCCc3ccccc32)cc1C(=O)O`, in assay [2], the concentration giving a half-maximal response (EC50) is more than 250 µM.

In the case of `O=C(O)c1cc(C(=O)O)c(C(=O)N(Cc2ccc(-c3ccccc3Cl)cc2)[C@H]2CCCc3ccccc32)cc1C(=O)O`, the EC50 in assay [2] is 9 µM.

In the case of `O=C(O)c1cc(C(=O)O)c(C(=O)N(Cc2ccc(-c3cc(Cl)cc(Cl)c3)cc2)[C@H]2CCCc3ccccc32)cc1C(=O)O`, the concentration for a half-maximal effect (EC50) in assay [2] is 4 µM.

Take `COc1ccc(-c2ccc(CN(C(=O)c3cc(C(=O)O)c(C(=O)O)cc3C(=O)O)[C@H]3CCCc4ccccc43)cc2)cc1`: the 50% effective concentration (EC50) in assay [2] was 14 µM. In assay [1], this compound showed a dissociation constant Kd of 789 µM.

For `O=C(O)c1cc(C(=O)O)c(C(=O)N(Cc2ccc3c(c2)Cc2ccccc2-3)[C@H]2CCCc3ccccc32)cc1C(=O)O`, the EC50 in assay [2] was 26 µM.

For `O=C(O)c1ccc(C(=O)N(Cc2cccc(Oc3ccccc3)c2)[C@H]2CCCc3ccccc32)cc1C(=O)O`, the EC50 in assay [2] was 34 µM.

Consider `O=C(O)c1ccccc1C(=O)N(Cc1ccc(-c2ccccc2)cc1)[C@H]1CCCc2ccccc21`, for which the EC50 in assay [2] was 16 µM.

Turning to `CC(=O)N[C@H](CCCCN)C(=O)N[C@H](CCCCN)C(=O)NCC(=O)N[C@H](C)C(=O)N[C@@H]1CSSC[C@H](C(=O)N[C@H](C)C(=O)N[C@H](C)C(N)=O)NC(=O)[C@@H](CC(C)C)NC(=O)[C@@H](Cc2c[nH]c3ccccc23)NC(=O)[C@@H](C)NC(=O)[C@@H](Cc2c[nH]c3ccccc23)NC(=O)[C@@H](CCC(=O)O)NC(=O)[C@@H](Cc2c[nH]c3ccccc23)NC(=O)CNC(=O)[C@@H](CC(C)C)NC(=O)[C@@H](CC(C)C)NC(=O)[C@@H](CCC(=O)O)NC1=O`, in assay [2], the EC50 was 19 µM.

As to `O=C(O)c1cc(C(=O)O)c(C(=O)N(Cc2cccc(Oc3ccccc3)c2)[C@H]2CCCc3ccccc32)cc1C(=O)O` [A-317491], the EC50 in assay [2] is 13 µM.
